Measurements as given in patent US20230045421A1 (priority 2018, published 2023).

test system: HBV rcDNA; assay: HepDE19 assay with bDNA quantitation of HBV rcDNA; type: cell-based, hepatitis B virus; settings: HepDE19 assay, inhibition of formation of rcDNA; read-out: DE-19bDNA EC50
Outline: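 HepDE19 cells (HepG2-derived, Tet-regulated HBV replication) were deprived of tetracycline and then exposed to compounds for 7 days at 37 °C in 0.5% DMSO, 8-point titration from 25 μM. rcDNA was quantified by bDNA and EC50/EC90 came from 4-parameter fits. CC50 was measured by CellTiter-Glo ATP content on replicate plates after 4 days.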

SMILES	EC50
CC(c1c[nH]c(=O)c2ccccc12)N(CC[C@@H](C)O)C(=O)Nc1ccc(F)c(Cl)c1 (single isomer, unassigned) [Compound 212]	0.02 µM
CC(c1c[nH]c(=O)c2ccccc12)N(C[C@H](C)O)C(=O)Nc1ccc(F)c(Cl)c1 (single isomer, unassigned) [Compound 218]	0.08 µM
COCCOCCN(C(=O)Nc1ccc(F)c(Cl)c1)C(C)c1cnc(OC)c2ccccc12 (single isomer, unassigned) [Compound 122, 3-(3-Chloro-4-fluorophenyl)-1-(2-(2-methoxyethoxy)ethyl)-1-(1-(1-methoxyisoquinolin-4-yl)ethyl)urea]	1.2 µM
COc1ccc2c(=O)[nH]cc(C(C)N(C)C(=O)Nc3ccc(F)c(Cl)c3)c2c1 (single isomer, unassigned) [Compound 179, 3-(3-Chloro-4-fluorophenyl)-1-(1-(6-methoxy-1-oxo-1,2-dihydroisoquinolin-4-yl)ethyl)-1-methylurea]	7.3 µM
CC(c1c[nH]c(=O)c2ccccc12)N(C[C@H]1CCCO1)C(=O)Nc1ccc(F)c(Cl)c1 (single isomer, unassigned) [Compound 156]	0.17 µM

same assay, conditions: HepDE19 assay, inhibition of formation of relaxed circular DNA (rcDNA), bDNA quantitation; read-out: DE-19bDNA EC50

SMILES	EC50
CC(C)CN(C(=O)Nc1ccc(F)c(Cl)c1)C(C)c1c[nH]c(=O)c2c(F)cc(F)cc12 (single isomer, unassigned) [Compound 446, 3-(3-Chloro-4-fluorophenyl)-1-(1-(6,8-difluoro-1-oxo-1,2-dihydroisoquinolin-4-yl)ethyl)-1-isobutylurea]	0.59 µM
CC(c1c[nH]c(=O)c2c(F)cccc12)N(CCCO)C(=O)Nc1ccc(F)c(Cl)c1 (single isomer, unassigned) [Compound 366, 3-(3-Chloro-4-fluorophenyl)-1-(1-(8-fluoro-1-oxo-1,2-dihydroisoquinolin-4-yl)ethyl)-1-(3-hydroxypropyl)urea]	11 µM
CC(C)CN(C(=O)Nc1ccc(F)c(Cl)c1)C(C)c1c[nH]c(=O)c2c(F)cccc12 (single isomer, unassigned) [Compound 360, 3-(3-Chloro-4-fluorophenyl)-1-(1-(8-fluoro-1-oxo-1,2-dihydroisoquinolin-4-yl)ethyl)-1-isobutylurea]	0.18 µM
CC(c1c[nH]c(=O)c2cc(F)c(F)cc12)N(C)C(=O)Nc1ccc(F)cc1 (single isomer, unassigned) [Compound 285, 1-(1-(6,7-Difluoro-1-oxo-1,2-dihydroisoquinolin-4-yl)ethyl)-3-(4-fluorophenyl)-1-methylurea]	4.3 µM
CC(c1c[nH]c(=O)c2c(F)c(F)ccc12)N(C)C(=O)NCc1cc(F)c(F)c(F)c1 (single isomer, unassigned) [Compound 493, 1-(1-(7,8-Difluoro-1-oxo-1,2-dihydroisoquinolin-4-yl)ethyl)-1-methyl-3-(3,4,5-trifluorobenzyl)urea]	15 µM
CC(c1cnc(OCc2nc[nH]n2)c2cc(F)c(F)cc12)N(CCCO)C(=O)Nc1ccc(F)c(Cl)c1 (single isomer, unassigned) [Compound 365, 1-(1-(1-((1H-1,2,4-Triazol-3-yl)methoxy)-6,7-difluoroisoquinolin-4-yl)ethyl)-3-(3-chloro-4-fluorophenyl)-1-(3-hydroxypropyl)urea]	0.009 µM
CC(C)CN(C(=O)Nc1ccc(F)c(Cl)c1)C(C)c1cnc(-n2cncn2)c2ccccc12 (single isomer, unassigned) [Compound 344, 1-(1-(1-(1H-1,2,4-triazol-1-yl)isoquinolin-4-yl)ethyl)-3-(3-chloro-4-fluorophenyl)-1-isobutylurea]	2.3 µM
Cc1ncc(C(C)N(C)C(=O)Nc2ccc(F)c(Cl)c2)c2ccccc12 (single isomer, unassigned) [Compound 353, 3-(3-Chloro-4-fluorophenyl)-1-methyl-1-(1-(1-methylisoquinolin-4-yl)ethyl)urea]	0.19 µM
CC(c1c[nH]c(=O)c2c(F)c(F)ccc12)N(C)C(=O)NCc1cc(F)c(F)c(F)c1 (single isomer, unassigned) [Compound 494, 1-(1-(7,8-Difluoro-1-oxo-1,2-dihydroisoquinolin-4-yl)ethyl)-1-methyl-3-(3,4,5-trifluorobenzyl)urea]	0.89 µM
CC(c1c[nH]c(=O)c2ccc(F)cc12)N(CC1COC(C)(C)OC1)C(=O)Nc1ccc(F)c(Cl)c1 (single isomer, unassigned) [Compound 283, 3-(3-Chloro-4-fluorophenyl)-1-((2,2-dimethyl-1,3-dioxan-5-yl)methyl)-1-(1-(6-fluoro-1-oxo-1,2-dihydroisoquinolin-4-yl)ethyl)urea]	0.043 µM

same assay, conditions: Hepatitis B virus, HepDE19, HepDE19 assay, inhibition of formation of rcDNA; read-out: DE-19bDNA EC50

SMILES	EC50
COc1ncc(C(C)N(CCCO)C(=O)Nc2ccc(F)c(Cl)c2)c2ccccc12 (single isomer, unassigned) [Compound 140, 3-(3-Chloro-4-fluorophenyl)-1-(3-hydroxypropyl)-1-(1-(1-methoxyisoquinolin-4-yl)ethyl)urea]	0.23 µM
CC(c1c[nH]c(=O)c2ccncc12)N(C)C(=O)Nc1ccc(F)c(Cl)c1 (stereo not drawn) [Compound 127, 3-(3-chloro-4-fluorophenyl)-1-methyl-1-(1-(1-oxo-1,2-dihydro-2,6-naphthyridin-4-yl)ethyl)urea]	1 µM
CCN(C(=O)Nc1ccc(F)c(Cl)c1)C(c1cnc(OC)c2ccccc12)C(F)(F)F (single isomer, unassigned) [Compound 75, 3-(3-Chloro-4-fluorophenyl)-1-ethyl-1-(2,2,2-trifluoro-1-(1-methoxyisoquinolin-4-yl)ethyl)urea]	4.5 µM
COc1ncc(C(C)N(CCNCC(F)(F)F)C(=O)Nc2ccc(F)c(Cl)c2)c2ccccc12 (racemic) [Compound 158, 3-(3-Chloro-4-fluorophenyl)-1-(1-(1-methoxyisoquinolin-4-yl)ethyl)-1-(2-((2,2,2-trifluoroethyl)amino)ethyl)urea]	2.7 µM
COc1ncc(CN(C(=O)Nc2ccc(F)c(Cl)c2)C2CC2)c2ccccc12 [Compound 34, 3-(3-Chloro-4-fluorophenyl)-1-cyclopropyl-1-((1-methoxyisoquinolin-4-yl)methyl)urea]	3.7 µM
CC(C)CN(C(=O)Nc1ccc(F)c(Cl)c1)C(C)c1cn(CC(F)(F)F)c(=O)c2ccccc12 (racemic) [Compound 229, 3-(3-Chloro-4-fluorophenyl)-1-isobutyl-1-(1-(1-oxo-2-(2,2,2-trifluoroethyl)-1,2-dihydroisoquinolin-4-yl)ethyl)urea]	0.07 µM

same assay, conditions: Hepatitis B virus, HepDE19, HepDE19 assay, inhibition of formation of relaxed circular DNA (rcDNA), bDNA quantitation; read-out: DE-19bDNA EC50

SMILES	EC50
CC(C)CN(C(=O)Nc1ccc(F)c(Cl)c1)C(C)c1c[nH]c(=O)c2cc(F)c(F)cc12 (single isomer, unassigned) [Compound 281, 3-(3-Chloro-4-fluorophenyl)-1-(1-(6,7-difluoro-1-oxo-1,2-dihydroisoquinolin-4-yl)ethyl)-1-isobutylurea]	0.002 µM

same assay, conditions: Hepatitis B virus, HepDE19, read-out: DE-19bDNA EC50 (μM), HepDE19 assay, inhibition of formation of rcDNA

SMILES	EC50
CCN(C(=O)Nc1ccc(F)c(Cl)c1)C(c1ccccc1)c1c[nH]c(=O)c2ccccc12 (single isomer, unassigned) [Compound 69, 3-(3-Chloro-4-fluorophenyl)-1-ethyl-1-((1-oxo-1,2-dihydroisoquinolin-4-yl)(phenyl)methyl)urea]	9.7 µM

same assay, conditions: Hepatitis B virus, HepDE19, read-out: DE-19bDNA EC50 (μM), HepDE19 assay, inhibition of formation of relaxed circular DNA (rcDNA), bDNA quantitation

SMILES	EC50
[2H]C([2H])([2H])N(C(=O)Nc1cccc(Cl)c1)C(C)c1c[nH]c(=O)c2c(F)c(F)ccc12 (single isomer, unassigned) [Compound 474, 3-(3-Chlorophenyl)-1-(1-(7,8-difluoro-1-oxo-1,2-dihydroisoquinolin-4-yl)ethyl)-1-(methyl-d3)urea]	0.015 µM
[2H]C([2H])([2H])N(C(=O)Nc1ccc(F)c(Cl)c1)C(C)c1c[nH]c(=O)c2cc(F)c(F)cc12 (single isomer, unassigned) [Compound 472, 3-(3-Chloro-4-fluorophenyl)-1-(1-(6,7-difluoro-1-oxo-1,2-dihydroisoquinolin-4-yl)ethyl)-1-(methyl-d3)urea]	0.007 µM

same assay, conditions: read-out: DE-19bDNA EC50; HepDE19 assay, inhibition of formation of rcDNA

SMILES	EC50
COCCOCCN(C(=O)Nc1ccc(F)c(Cl)c1)C(C)c1c[nH]c(=O)c2ccccc12 (single isomer, unassigned) [Compound 124, 3-(3-Chloro-4-fluorophenyl)-1-(2-(2-methoxyethoxy)ethyl)-1-(1-(1-oxo-1,2-dihydroisoquinolin-4-yl)ethyl)urea]	0.56 µM

same assay, conditions: read-out: DE-19bDNA EC50; HepDE19 assay, inhibition of formation of relaxed circular DNA (rcDNA), bDNA quantitation

SMILES	EC50
CC(c1c[nH]c(=O)c2c(F)c(F)ccc12)N(C)C(=O)Nc1ccc(Cl)cc1 (single isomer, unassigned) [Compound 445, 3-(4-Chlorophenyl)-1-(1-(7,8-difluoro-1-oxo-1,2-dihydroisoquinolin-4-yl)ethyl)-1-methylurea]	0.22 µM
CC(c1c[nH]c(=O)c2cc(F)c(F)cc12)N(C)C(=O)Nc1ccccc1 (single isomer, unassigned) [Compound 399, 1-(1-(6,7-Difluoro-1-oxo-1,2-dihydroisoquinolin-4-yl)ethyl)-1-methyl-3-phenylurea]	0.11 µM
CC(c1c[nH]c(=O)c2c(F)c(F)ccc12)N(C)C(=O)Nc1cccc(Cl)c1 (single isomer, unassigned) [Compound 461, 3-(3-Chlorophenyl)-1-(1-(7,8-difluoro-1-oxo-1,2-dihydroisoquinolin-4-yl)ethyl)-1-methylurea]	0.011 µM
CC(c1c[nH]c(=O)c2c(F)c(F)ccc12)N(C)C(=O)Nc1cc(Cl)cc(Cl)c1 (single isomer, unassigned) [Compound 448, 3-(3,5-Dichlorophenyl)-1-(1-(7,8-difluoro-1-oxo-1,2-dihydroisoquinolin-4-yl)ethyl)-1-methylurea]	0.07 µM
